From patent publication US11912703B2, “6-azaindole compounds” (BRISTOL-MYERS SQUIBB COMPANY, priority 2017, dated 2024)
pIC50: −log10 of the molar value. Like-named read-outs stand apart in the source and are kept apart here.

Key:
[1] = molecular target: human TLR9 (Homo sapiens (Human), UniProt Q9NR96); experiment: TLR9 inhibition reporter assay (HEK-Blue SEAP);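 also: SEAP driven by IFN-β minimal promoter carrying five NF-κB and AP-1 sites, 22 h at 37 °C, compounds 0.05 nM–50 µM, inhibition scaled between agonist-plus-DMSO and reference-inhibitor wells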
Chain of human TLR9 (Q9NR96 26-1032): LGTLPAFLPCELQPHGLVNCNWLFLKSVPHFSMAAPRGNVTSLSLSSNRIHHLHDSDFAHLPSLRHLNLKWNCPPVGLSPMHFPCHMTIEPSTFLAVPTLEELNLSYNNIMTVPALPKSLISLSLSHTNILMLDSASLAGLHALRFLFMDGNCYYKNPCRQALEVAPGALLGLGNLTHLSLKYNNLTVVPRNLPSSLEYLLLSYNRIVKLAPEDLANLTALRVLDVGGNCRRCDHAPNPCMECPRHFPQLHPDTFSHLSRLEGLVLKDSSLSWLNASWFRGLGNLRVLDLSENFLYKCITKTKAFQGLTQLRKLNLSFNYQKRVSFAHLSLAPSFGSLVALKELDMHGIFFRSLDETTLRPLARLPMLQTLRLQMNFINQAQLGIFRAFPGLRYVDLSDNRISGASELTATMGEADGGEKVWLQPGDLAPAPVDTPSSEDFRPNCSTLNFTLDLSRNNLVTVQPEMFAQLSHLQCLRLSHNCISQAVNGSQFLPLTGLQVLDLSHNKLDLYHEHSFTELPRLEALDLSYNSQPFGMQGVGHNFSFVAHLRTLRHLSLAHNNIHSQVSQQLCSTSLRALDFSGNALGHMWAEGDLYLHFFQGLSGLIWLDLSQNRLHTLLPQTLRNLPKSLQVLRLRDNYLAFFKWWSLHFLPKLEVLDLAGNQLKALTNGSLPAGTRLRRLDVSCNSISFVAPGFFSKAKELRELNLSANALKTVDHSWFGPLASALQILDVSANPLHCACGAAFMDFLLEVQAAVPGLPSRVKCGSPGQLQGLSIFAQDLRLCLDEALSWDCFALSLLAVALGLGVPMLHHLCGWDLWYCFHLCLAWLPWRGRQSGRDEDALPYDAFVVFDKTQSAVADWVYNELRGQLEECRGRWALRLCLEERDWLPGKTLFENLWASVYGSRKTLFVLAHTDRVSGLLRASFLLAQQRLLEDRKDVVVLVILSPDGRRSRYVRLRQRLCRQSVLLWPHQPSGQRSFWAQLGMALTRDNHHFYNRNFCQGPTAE
Protocol: (§1) HEK-Blue™-cells (Invivogen) overexpressing human TLR7, TLR8 or TLR9 receptors were used for screening inhibitors of these receptors using an inducible SEAP (secreted embryonic alkaline phosphatase) reporter gene under the control of the IFN-β minimal promoter fused to five NF-κB and AP-1-binding sites. Briefly, cells are seeded into Greiner 384 well plates (15000 cells per well for TLR7, 20,000 for TLR8 and 25,000 for TLR9) and then treated with test compounds in DMSO to yield a final dose response concentration range of 0.05 nM-50 μM. After a 30 minute compound pre-treatment at room temperature, the cells are then stimulated with a TLR7 ligand (gardiquimod at a final concentration of 7.5 μM), TLR8 ligand (R848 at a final concentration of 15.9 μM) or TLR9 ligand (ODN2006 at a final concentration of 5 nM) to activate NF-κB and AP-1 which induce the production of SEAP. After a 22 hour incubation at 37° C., 500 CO2, SEAP levels are determined with the addition of HEK-Blue™ Detection reagent (Invivogen), a cell culture medium that allows for detection of SEAP, according to manufacturer's specifications.

[2] = molecular target: human TLR8 (Homo sapiens (Human), UniProt Q9NR97); experiment: TLR8 inhibition reporter assay (HEK-Blue SEAP);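 also: SEAP driven by IFN-β minimal promoter with five NF-κB and AP-1 sites, compounds tested 0.05 nM to 50 µM, 22 h incubation, inhibition relative to agonist plus DMSO wells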
Chain of human TLR8 (Q9NR97 27-1041): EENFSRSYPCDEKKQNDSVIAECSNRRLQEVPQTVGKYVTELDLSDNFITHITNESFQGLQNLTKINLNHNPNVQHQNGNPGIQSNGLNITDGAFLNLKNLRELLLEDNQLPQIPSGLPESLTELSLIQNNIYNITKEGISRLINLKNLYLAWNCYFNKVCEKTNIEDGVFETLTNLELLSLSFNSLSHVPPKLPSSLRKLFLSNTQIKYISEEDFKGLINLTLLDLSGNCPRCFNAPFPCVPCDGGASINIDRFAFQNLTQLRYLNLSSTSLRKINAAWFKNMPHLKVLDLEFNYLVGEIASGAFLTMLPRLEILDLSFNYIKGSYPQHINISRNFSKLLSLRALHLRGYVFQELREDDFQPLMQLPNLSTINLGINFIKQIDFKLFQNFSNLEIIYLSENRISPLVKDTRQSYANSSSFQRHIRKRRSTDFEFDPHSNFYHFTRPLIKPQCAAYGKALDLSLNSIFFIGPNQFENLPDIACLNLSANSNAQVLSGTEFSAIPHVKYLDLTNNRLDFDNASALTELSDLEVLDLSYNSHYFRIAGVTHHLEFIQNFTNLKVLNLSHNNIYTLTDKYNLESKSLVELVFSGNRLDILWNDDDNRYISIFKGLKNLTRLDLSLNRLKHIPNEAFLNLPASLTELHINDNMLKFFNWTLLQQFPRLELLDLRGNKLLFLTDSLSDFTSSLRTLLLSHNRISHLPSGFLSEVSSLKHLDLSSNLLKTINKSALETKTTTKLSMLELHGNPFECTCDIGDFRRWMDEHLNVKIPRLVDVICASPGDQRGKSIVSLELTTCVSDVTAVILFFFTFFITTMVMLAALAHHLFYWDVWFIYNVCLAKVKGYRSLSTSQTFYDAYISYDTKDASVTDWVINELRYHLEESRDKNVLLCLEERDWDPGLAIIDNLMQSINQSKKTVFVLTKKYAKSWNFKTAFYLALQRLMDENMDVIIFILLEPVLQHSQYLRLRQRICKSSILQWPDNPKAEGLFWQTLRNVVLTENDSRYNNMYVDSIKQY
Protocol: as §1

[3] = molecular target: human TLR7 (Homo sapiens (Human), UniProt Q9NYK1); experiment: TLR7 inhibition reporter assay (HEK-Blue SEAP); assay type: cell-based; conditions: HEK-Blue cells overexpressing human TLR7, gardiquimod 7.5 μM stimulation
Chain of human TLR7 (Q9NYK1 27-1049): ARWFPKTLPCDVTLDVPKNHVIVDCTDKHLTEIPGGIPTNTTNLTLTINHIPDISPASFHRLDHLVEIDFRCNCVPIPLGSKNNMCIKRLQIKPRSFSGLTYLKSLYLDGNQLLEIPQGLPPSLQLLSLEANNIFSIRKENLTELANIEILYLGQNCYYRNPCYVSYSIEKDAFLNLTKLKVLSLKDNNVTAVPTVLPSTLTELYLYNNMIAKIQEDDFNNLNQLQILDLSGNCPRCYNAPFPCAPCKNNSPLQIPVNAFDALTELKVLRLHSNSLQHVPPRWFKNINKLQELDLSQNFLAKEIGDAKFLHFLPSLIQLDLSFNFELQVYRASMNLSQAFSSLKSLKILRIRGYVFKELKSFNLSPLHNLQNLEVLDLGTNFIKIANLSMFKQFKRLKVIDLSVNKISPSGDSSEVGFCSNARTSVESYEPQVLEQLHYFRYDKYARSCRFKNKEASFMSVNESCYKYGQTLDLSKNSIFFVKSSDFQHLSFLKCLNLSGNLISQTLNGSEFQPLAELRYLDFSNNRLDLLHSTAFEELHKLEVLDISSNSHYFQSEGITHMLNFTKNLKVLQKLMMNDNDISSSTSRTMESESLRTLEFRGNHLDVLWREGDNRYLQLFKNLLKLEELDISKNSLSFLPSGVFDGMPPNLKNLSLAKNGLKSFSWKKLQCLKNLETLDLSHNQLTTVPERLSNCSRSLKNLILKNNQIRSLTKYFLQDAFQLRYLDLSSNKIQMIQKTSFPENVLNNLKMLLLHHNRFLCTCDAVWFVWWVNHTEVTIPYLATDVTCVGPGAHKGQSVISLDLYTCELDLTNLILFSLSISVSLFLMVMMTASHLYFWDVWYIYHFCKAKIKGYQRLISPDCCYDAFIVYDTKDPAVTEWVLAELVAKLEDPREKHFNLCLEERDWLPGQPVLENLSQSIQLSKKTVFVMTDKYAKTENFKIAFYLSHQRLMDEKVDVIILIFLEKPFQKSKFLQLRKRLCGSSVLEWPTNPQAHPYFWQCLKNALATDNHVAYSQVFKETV

[4] = read-out: TLR9 IC50; HEK-Blue cells overexpressing human TLR9, ODN2006 5 nM stimulation, SEAP reporter
[5] = read-out: TLR8 IC50; HEK-Blue cells overexpressing human TLR8, R848 15.9 μM stimulation, SEAP reporter
[6] = read-out: TLR9 IC50; HEK-Blue cells overexpressing human TLR9; ODN2006 5 nM stimulation; SEAP reporter
[7] = read-out: TLR8 IC50; HEK-Blue cells overexpressing human TLR8; R848 15.9 μM stimulation; SEAP reporter

Compound	pIC50 [1, 4]	pIC50 [2, 5]	pIC50 [3]	pIC50 [1, 6]	pIC50 [2, 7]
Cc1cc(-c2[nH]c3cnc(N4CCC(NC5(C)COC5)CC4)c(F)c3c2C(C)C)cn2ncnc12 [Example 43]	4.89	9.22	9.00	–	–
COc1cc(-c2[nH]c3cnc(C4CCNCC4)c(F)c3c2C(C)C)cn2ncnc12 [Example 3, 6-(4-fluoro-3-isopropyl-5-(piperidin-4-yl)-1H-pyrrolo[2,3-c]pyridin-2-yl)-8-methoxy-[1,2,4]triazolo[1,5-a]pyridine]	5.80	7.96	8.49	–	–
Cc1cc(-c2[nH]c3cnc(C4CCC(NC5CCOCC5)CC4)c(F)c3c2C(C)C)cn2ncnc12 (stereo not drawn) [Example 110]	5.93	8.89	8.70	–	–
Cc1cc(-c2[nH]c3cnc(N4CCC(N5CCC5)CC4)c(F)c3c2C(C)C)cn2ncnc12 [Example 70]	5.40	9.11	9.64	–	–
Cc1c(-c2[nH]c3cnc(C4CCC(N(C)C(C)C)CC4)c(F)c3c2C(C)C)cn2ncnc2c1C (stereo not drawn) [Example 168]	4.76	8.35	8.44	–	–

Continued, values first:

pIC50 [1, 4]	pIC50 [2, 5]	pIC50 [3]	pIC50 [1, 6]	pIC50 [2, 7]	Compound
–	–	8.96	5.70	8.82	Cc1c(-c2[nH]c3cnc(N4CCN(C5CCN(C(C)C)CC5)C[C@H]4C)c(F)c3c2C(C)C)cn2ncnc2c1C [Example 462]
6.52	7.33	8.15	–	–	CNC(=O)CN1CCC(c2cc3c(C(C)C)c(-c4cc(OC)c5ncnn5c4)[nH]c3cn2)CC1 [Example 292]
5.97	9.01	8.96	–	–	Cc1c(N2CCC(N3CCOCC3)CC2)ncc2[nH]c(-c3cc(C)c4ncnn4c3)c(C(C)C)c12 [Example 282]
6.29	7.92	8.62	–	–	COc1cc(-c2[nH]c3cnc(C4CCC(NCC(C)(C)C)CC4)cc3c2C(C)C)cn2ncnc12 (stereo not drawn) [Example 325]
6.12	7.85	8.48	–	–	Cc1c(-c2[nH]c3cnc(C4CCC(NC5COC5)CC4)cc3c2C(C)C)cn2ncnc2c1C (stereo not drawn) [Example 346]
4.84	8.43	7.92	–	–	COc1cc(-c2[nH]c3cnc(N4CCN(CC(N)=O)CC4)cc3c2C(C)C)cn2ncnc12 [Example 319]
6.69	8.19	8.36	–	–	COc1cc(-c2[nH]c3cnc(C4CCC(NCC5(C)COC5)CC4)c(C)c3c2C(C)C)cn2ncnc12 (stereo not drawn) [Example 269]
–	–	8.27	5.05	8.82	Cc1c(-c2[nH]c3cnc(N4CCN(C(C)C)C[C@H]4C)c(F)c3c2C(C)C)cn2ncnc2c1C [Example 461]
